Measurements reported in EP0308783A2, “Antimycotic preparations” (BAYER AG, priority 1987, dated 1989).
Converted amounts (≈) assume the structure as drawn.

Columns and labels:
Experiment in all cases: antimycotic in-vitro activity, serial dilution test
Assay type in all cases: cell-based
Aspergillus fumigatus = conditions: Sabouraud's milieu d'epreuve, 28°C to 37 C, 96 hours, inoculum 5 x 10^3 to 10^4 germs/ml, read-out: MHK-Werte in µg/ml Närmedium Aspergillus fumigatus
Description: (§1) Die in-vitro-Prüfungen wurden im Reihenverdünnungstest mit Keiminokula von durchschnittlich 5 x 10^3 bis 10^4 Keimen/mi Substrat durchgeführt. Als Nährmedium dienten • a) für Dermatophyten und Schimmelpilze: Sabouraud's milieu d'epreuve • b) für Hefen: Fleischextrakt-Traubenzucker-Bouillon.
(§2) Die Bebrütungstemperatur betrug 28°C bis 37 C, die Bebrütungsdauer lag bei 24 bis 96 Stunden bei Hefen und 96 Stunden bei Dermatophyten und Schimmelpilzen.

Candida albicans = conditions: Fleischextrakt-Traubenzucker-Bouillon, 28°C to 37 C, 24 to 96 hours, inoculum 5 x 10^3 to 10^4 germs/ml, read-out: MHK-Werte in µg/ml Närmedium Candida albicans
Description: as §1, §2

Trichophyton mentagr. = conditions: Sabouraud's milieu d'epreuve, 28°C to 37 C, 96 hours, inoculum 5 x 10^3 to 10^4 germs/ml, read-out: MHK-Werte in µg/ml Närmedium Trichophyton mentagr.
Description: as §1, §2

Torulopsis glabrata = conditions: Nakaseomyces glabratus; Fleischextrakt-Traubenzucker-Bouillon; 28°C to 37 C; 24 to 96 hours; inoculum 5 x 10^3 to 10^4 germs/ml; read-out: MHK-Werte in µg/ml Närmedium Torulopsis glabrata
Description: as §1, §2

Microsporum canis = conditions: Sabouraud's milieu d'epreuve, 28°C to 37 C, 96 hours, inoculum 5 x 10^3 to 10^4 germs/ml, read-out: MHK-Werte in µg/ml Närmedium Microsporum canis
Description: as §1, §2

| MIC (Aspergillus fumigatus) | MIC (Candida albicans) | MIC (Trichophyton mentagr.) | MIC (Torulopsis glabrata) | MIC (Microsporum canis) | SMILES |
| --- | --- | --- | --- | --- | --- |
| > 64 µg/mL | > 64 µg/mL | > 64 µg/mL |  |  | OC(Cn1cncn1)(c1ccc(Cl)cc1)C1(F)CC1 (stereo not drawn) [(A), 1-(4-Chlorphenyl)-1-(1-fluor-cycloprop-1-yl)-2-(1,2,4-triazol-1-yl)-ethan-1-ol] |
| > 64 µg/mL | 16 µg/mL (≈ 37.7 µM) | 64 µg/mL (≈ 151 µM) | 64 µg/mL (≈ 151 µM) |  | OC(Cn1cncn1)(c1ccc(Cl)cc1)C1(Oc2ccc(Cl)cc2Cl)CC1 (stereo not drawn) [(B), 1-(4-Chlorphenyl)-1-[1-(2,4-dichiorphenoxy)-cycloprop-1-yl]-2-(1,2,4-triazol-1-yl)-ethan-1-ol] |
| 2 µg/mL (≈ 6.09 µM) | 16 µg/mL (≈ 48.8 µM) | < 1 µg/mL | 16 µg/mL (≈ 48.8 µM) | < 1 µg/mL | OC(COc1ccc(Cl)cc1)(Cn1cncn1)C1(Cl)CC1 (stereo not drawn) [Beispiel 1, 2-(1-Chlorcyclopropyl)-1-(4-chlorphenoxy)-3-(1,2,4-triazol-1-yl)-propan-2-ol] |
